Test results reported in ChEMBL document CHEMBL5579855 (J Med Chem, 2024).

What was measured:
PANC-1 [1] = assay: cells; conditions: Homo sapiens, PANC-1, 96 h
Description: Antiproliferative activity against human PANC-1 cells assessed as inhibition of cell growth incubated for 96 hrs by CCK-8 cell viability assay

PANC-1 [2] = assay: Antitumor activity against human PANC-1 cells xenografted in male BALB/c/Nu/Nu assessed as reduction in tumor growth inhibition at 4 mg/kg, ip and measured every 2 days for 21 days; conditions: Mus musculus, PANC-1, 48 h, read-out: TGI
MDA-MB-231 = assay: cells; conditions: Homo sapiens, MDA-MB-231, 96 h
Description: Antiproliferative activity against human MDA-MB-231 cells assessed as inhibition of cell growth incubated for 96 hrs by CCK-8 cell viability assay

[3] = molecular target: T1, Histone-lysine N-methyltransferase EHMT2 (Homo sapiens, UniProt Q96KQ7); assay: Inhibition of G9a (unknown origin) by AlphaLISA assay
T1 sequence (Q96KQ7 whole entry): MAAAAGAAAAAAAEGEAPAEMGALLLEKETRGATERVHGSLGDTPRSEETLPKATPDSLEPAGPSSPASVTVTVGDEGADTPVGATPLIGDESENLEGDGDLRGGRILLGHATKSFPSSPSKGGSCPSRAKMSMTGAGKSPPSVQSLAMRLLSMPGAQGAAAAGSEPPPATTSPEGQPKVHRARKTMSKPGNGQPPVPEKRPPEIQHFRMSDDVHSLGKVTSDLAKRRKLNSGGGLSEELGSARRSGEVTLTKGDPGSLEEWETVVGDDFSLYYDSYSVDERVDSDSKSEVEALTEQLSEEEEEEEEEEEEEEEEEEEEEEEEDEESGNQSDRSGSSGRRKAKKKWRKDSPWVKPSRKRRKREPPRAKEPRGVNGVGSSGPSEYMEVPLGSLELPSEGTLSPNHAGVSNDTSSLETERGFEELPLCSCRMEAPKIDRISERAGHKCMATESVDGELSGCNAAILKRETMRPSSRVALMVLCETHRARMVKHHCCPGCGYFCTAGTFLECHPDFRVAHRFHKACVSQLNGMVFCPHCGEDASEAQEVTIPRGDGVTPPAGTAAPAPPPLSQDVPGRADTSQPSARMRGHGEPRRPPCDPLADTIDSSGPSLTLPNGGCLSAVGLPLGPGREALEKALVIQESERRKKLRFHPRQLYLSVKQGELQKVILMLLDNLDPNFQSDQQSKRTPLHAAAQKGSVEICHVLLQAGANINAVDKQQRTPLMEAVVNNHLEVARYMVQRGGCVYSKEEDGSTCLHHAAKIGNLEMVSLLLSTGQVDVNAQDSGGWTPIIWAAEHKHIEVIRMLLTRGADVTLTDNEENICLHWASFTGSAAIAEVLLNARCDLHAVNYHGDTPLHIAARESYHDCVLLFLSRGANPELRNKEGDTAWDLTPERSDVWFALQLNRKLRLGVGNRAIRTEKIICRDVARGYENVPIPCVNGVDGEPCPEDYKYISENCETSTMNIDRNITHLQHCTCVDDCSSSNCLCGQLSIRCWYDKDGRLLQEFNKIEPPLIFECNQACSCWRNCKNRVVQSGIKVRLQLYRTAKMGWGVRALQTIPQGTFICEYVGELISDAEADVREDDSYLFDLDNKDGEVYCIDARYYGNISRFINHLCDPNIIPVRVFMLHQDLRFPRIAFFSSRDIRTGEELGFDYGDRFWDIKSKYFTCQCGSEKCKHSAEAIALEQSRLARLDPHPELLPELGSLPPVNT

[4] = molecular target: T2, Histone-lysine N-methyltransferase NSD2 (Homo sapiens, UniProt O96028); assay: Inhibition of NSD2 (unknown origin) by AlphaLISA assay
T2 sequence (O96028 whole entry): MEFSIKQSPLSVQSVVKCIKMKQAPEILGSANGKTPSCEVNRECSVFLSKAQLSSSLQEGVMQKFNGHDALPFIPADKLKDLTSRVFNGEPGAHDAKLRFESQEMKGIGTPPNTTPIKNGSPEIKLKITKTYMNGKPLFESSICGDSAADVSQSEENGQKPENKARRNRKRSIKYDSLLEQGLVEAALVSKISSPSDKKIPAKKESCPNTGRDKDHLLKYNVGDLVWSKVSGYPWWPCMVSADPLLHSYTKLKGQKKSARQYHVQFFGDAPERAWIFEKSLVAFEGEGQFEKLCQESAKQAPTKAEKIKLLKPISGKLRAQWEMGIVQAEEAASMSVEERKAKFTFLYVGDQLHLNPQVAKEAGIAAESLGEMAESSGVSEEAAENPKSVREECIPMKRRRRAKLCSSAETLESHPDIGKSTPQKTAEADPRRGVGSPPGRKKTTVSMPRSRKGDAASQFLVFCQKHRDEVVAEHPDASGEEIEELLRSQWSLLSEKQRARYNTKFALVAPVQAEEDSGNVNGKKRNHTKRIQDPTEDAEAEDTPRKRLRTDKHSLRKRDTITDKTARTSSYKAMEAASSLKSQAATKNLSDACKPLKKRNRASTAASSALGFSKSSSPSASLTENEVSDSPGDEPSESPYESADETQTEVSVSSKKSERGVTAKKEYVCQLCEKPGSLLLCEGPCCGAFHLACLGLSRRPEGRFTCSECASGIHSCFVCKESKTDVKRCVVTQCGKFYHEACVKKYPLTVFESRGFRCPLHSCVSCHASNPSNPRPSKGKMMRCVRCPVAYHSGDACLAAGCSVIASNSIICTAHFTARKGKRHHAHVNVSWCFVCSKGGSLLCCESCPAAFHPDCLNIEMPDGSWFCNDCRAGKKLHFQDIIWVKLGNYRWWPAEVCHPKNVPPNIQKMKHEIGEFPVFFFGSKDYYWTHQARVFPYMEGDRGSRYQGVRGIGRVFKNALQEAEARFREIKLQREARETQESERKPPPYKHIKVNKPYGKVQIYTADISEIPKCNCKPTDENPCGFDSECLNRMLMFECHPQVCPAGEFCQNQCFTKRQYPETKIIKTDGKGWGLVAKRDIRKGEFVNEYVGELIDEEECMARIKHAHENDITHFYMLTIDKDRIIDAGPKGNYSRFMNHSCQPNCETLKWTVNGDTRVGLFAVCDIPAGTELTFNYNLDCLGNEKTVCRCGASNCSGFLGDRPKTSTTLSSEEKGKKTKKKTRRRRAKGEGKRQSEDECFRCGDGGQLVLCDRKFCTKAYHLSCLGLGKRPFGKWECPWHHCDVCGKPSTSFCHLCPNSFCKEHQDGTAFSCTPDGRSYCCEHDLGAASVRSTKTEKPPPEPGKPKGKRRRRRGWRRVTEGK

[5] = molecular target: DNA (cytosine-5)-methyltransferase 1 (Homo sapiens, UniProt P26358); assay: Inhibition of DNMT1 (unknown origin)
[6] = AUC (0 to infinity) in mouse at 4 mg/kg, ip; format: ADME, organism-based; conditions: in vivo
[7] = molecular target: Histone-lysine N-methyltransferase 2A (Homo sapiens, UniProt Q03164); assay: Inhibition of MLL1 (unknown origin)
[8] = molecular target: Histone-lysine N-methyltransferase EZH2 (Homo sapiens, UniProt Q15910); assay: Inhibition of EZH2 (unknown origin)
[9] = Cmax in mouse at 4 mg/kg, ip; format: ADME, organism-based; conditions: in vivo
[10] = molecular target: Protein arginine N-methyltransferase 1 (Homo sapiens, UniProt Q99873); assay: Inhibition of PRMT1 (unknown origin)
[11] = molecular target: Protein arginine N-methyltransferase 5 (Homo sapiens, UniProt O14744); assay: Inhibition of PRMT5 (unknown origin)
[12] = Toxicity in male BALB/c/Nu/Nu mouse xenografted with human PANC-1 cells assessed as drug tolerance administered as ip dose and measured every 2 days for 21 days; format: organism-based; conditions: in vivo, 504 h, time 21 day
[13] = molecular target: T3, Histone-arginine methyltransferase CARM1 (Homo sapiens, UniProt Q86X55); assay: Inhibition of PRMT4 (unknown origin)
T3 sequence (Q86X55 whole entry): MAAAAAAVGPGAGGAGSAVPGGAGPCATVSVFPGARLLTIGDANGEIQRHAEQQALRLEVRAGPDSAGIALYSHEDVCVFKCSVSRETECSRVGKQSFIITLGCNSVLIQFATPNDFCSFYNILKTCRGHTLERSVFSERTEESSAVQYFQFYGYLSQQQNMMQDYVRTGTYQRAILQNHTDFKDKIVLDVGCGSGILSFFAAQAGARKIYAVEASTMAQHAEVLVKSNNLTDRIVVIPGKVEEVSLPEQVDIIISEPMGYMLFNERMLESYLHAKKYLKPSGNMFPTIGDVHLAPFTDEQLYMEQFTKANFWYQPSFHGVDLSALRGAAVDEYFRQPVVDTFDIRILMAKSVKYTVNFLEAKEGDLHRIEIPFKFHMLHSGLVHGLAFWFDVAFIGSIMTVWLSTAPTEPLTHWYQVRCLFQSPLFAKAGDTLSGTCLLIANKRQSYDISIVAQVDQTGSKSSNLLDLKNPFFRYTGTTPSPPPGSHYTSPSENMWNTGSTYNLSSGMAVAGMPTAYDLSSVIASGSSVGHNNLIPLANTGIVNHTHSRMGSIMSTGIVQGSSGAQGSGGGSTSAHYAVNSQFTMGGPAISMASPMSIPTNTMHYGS

[14] = molecular target: Histone-lysine N-methyltransferase 2B (Homo sapiens, UniProt Q9UMN6); assay: Inhibition of MLL4 (unknown origin)
[15] = MRT (0 to t) in mouse at 4 mg/kg, ip; format: ADME, organism-based; conditions: in vivo
[16] = Toxicity in male BALB/c/Nu/Nu mouse xenografted with human PANC-1 cells assessed as change in body weight administered as ip dose and measured every 2 days for 21 days; format: organism-based; conditions: in vivo, 504 h, time 21 day
[17] = AUC (0 to last) in mouse at 4 mg/kg, ip; format: ADME, organism-based; conditions: in vivo
[18] = molecular target: T4, Histone-lysine N-methyltransferase EHMT1 (Homo sapiens, UniProt Q9H9B1); assay: Inhibition of GLP (unknown origin)
T4 sequence (Q9H9B1 whole entry): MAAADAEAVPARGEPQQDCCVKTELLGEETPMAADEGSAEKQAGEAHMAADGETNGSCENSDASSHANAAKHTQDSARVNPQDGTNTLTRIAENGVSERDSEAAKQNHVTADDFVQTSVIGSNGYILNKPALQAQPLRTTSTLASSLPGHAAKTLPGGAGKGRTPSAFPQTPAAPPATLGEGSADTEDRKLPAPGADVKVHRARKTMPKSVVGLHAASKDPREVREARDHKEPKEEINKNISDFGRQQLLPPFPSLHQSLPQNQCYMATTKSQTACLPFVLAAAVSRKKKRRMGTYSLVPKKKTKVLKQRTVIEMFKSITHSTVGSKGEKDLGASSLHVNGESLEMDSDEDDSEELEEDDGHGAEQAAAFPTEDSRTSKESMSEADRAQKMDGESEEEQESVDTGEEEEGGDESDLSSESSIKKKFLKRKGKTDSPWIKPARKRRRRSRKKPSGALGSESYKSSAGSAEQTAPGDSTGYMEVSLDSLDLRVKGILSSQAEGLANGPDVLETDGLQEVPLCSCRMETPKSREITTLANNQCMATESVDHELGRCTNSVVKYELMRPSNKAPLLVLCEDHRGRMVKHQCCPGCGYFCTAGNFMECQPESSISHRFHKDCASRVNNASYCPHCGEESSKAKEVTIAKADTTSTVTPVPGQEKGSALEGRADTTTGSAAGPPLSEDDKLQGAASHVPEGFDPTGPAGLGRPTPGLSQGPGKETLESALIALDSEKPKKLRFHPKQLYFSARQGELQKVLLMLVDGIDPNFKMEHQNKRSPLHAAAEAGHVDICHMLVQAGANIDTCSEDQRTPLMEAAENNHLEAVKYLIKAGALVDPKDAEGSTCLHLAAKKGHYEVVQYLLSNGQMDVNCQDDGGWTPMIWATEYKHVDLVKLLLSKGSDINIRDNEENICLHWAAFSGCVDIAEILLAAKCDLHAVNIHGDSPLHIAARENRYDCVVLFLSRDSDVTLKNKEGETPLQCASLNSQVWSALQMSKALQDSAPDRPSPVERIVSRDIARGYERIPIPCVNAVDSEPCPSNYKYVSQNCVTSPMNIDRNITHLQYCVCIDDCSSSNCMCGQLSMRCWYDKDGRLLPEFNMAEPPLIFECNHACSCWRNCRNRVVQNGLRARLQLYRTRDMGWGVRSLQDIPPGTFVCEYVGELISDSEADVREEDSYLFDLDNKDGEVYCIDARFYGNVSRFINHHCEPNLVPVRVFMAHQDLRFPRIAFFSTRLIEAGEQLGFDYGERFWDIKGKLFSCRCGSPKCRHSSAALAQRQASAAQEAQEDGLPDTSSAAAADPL

[19] = Half life in mouse at 4 mg/kg, ip; format: ADME, organism-based; conditions: in vivo

Histone-lysine N-methyltransferase EZH2, sequence (Q15910 whole entry): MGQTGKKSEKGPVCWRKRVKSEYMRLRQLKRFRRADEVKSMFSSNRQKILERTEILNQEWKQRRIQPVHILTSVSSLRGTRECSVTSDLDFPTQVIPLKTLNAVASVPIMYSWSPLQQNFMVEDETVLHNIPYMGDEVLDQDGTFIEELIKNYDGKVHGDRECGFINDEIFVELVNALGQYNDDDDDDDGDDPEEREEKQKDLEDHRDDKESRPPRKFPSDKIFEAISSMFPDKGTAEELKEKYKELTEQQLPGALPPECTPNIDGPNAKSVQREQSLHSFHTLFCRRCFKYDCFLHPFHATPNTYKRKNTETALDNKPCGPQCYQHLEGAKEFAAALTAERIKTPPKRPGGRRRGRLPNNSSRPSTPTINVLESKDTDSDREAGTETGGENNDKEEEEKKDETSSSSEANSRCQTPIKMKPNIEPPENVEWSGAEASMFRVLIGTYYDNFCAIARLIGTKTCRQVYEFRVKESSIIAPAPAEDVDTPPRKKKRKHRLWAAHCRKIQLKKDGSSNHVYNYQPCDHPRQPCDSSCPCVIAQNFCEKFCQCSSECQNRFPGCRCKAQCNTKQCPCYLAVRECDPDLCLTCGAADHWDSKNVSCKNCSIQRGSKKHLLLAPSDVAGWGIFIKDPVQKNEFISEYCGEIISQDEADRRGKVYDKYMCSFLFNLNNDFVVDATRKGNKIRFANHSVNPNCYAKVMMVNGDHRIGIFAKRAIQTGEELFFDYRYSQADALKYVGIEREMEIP
Histone-lysine N-methyltransferase 2B, sequence (Q9UMN6 whole entry): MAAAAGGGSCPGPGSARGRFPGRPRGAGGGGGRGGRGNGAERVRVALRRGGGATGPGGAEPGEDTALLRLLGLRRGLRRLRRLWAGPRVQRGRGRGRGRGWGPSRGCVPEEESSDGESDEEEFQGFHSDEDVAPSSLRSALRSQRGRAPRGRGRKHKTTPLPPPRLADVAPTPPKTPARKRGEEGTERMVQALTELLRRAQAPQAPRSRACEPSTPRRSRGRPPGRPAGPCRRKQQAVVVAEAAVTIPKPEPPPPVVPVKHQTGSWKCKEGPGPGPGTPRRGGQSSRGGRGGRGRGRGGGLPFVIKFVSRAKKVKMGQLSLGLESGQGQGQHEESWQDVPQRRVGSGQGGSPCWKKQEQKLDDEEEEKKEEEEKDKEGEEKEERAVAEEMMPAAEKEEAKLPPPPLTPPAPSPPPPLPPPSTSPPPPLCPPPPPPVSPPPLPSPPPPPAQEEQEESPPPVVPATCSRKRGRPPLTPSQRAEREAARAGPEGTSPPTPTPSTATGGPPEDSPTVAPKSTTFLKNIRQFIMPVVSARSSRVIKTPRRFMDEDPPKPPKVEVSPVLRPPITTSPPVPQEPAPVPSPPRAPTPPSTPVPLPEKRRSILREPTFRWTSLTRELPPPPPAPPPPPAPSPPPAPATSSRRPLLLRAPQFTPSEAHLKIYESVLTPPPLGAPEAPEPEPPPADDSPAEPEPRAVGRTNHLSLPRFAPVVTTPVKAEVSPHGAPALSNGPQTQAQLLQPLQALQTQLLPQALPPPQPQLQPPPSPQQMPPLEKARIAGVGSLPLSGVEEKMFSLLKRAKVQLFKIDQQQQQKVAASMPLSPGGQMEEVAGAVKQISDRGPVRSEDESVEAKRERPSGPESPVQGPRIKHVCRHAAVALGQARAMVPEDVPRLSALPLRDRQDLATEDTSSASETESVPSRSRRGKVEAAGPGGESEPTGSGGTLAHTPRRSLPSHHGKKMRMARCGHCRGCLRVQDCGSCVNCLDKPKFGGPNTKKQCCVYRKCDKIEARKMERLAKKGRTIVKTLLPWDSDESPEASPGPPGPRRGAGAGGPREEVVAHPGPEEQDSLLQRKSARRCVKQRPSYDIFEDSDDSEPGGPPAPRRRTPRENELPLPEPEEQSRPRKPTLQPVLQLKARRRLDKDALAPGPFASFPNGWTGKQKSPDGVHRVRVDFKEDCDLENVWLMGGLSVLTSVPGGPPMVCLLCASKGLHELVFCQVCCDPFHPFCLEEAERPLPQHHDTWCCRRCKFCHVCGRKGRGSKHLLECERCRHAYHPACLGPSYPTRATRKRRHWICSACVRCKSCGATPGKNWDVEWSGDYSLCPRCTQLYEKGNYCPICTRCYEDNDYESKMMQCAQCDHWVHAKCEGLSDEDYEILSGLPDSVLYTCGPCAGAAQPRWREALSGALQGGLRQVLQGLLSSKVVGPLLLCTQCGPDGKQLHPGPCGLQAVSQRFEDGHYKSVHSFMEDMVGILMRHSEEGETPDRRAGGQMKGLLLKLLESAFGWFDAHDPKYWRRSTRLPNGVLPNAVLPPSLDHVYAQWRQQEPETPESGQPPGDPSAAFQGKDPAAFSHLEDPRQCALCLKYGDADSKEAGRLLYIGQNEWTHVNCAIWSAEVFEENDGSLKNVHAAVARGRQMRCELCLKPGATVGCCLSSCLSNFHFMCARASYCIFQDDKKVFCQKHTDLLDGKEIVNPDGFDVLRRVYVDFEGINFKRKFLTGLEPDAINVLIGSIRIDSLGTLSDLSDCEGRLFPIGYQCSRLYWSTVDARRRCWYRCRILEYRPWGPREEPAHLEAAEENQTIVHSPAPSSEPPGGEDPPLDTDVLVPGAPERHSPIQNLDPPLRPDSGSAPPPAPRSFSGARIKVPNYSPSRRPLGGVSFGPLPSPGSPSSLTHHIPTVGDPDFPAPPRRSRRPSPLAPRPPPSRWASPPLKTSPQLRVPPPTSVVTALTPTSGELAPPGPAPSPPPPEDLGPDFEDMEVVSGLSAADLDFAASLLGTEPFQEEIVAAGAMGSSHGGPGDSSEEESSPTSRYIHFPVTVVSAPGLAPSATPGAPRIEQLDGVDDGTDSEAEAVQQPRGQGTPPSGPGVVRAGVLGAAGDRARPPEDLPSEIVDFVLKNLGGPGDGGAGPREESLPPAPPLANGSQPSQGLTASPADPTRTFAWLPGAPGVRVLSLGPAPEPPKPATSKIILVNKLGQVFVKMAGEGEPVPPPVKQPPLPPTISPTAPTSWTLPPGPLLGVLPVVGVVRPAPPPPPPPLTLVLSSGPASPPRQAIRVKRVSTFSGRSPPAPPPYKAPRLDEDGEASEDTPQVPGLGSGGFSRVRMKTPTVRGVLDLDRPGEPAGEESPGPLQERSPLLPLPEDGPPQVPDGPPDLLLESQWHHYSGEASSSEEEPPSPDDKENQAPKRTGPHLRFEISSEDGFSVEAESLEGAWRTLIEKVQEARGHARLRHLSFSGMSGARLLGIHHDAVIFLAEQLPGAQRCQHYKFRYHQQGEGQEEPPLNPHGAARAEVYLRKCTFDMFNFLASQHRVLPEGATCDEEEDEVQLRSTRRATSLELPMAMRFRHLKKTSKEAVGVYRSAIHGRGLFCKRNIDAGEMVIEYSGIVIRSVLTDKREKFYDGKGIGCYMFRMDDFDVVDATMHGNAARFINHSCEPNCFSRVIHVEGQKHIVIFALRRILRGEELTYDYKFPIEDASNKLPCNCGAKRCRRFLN
Protein arginine N-methyltransferase 5, sequence (O14744 whole entry): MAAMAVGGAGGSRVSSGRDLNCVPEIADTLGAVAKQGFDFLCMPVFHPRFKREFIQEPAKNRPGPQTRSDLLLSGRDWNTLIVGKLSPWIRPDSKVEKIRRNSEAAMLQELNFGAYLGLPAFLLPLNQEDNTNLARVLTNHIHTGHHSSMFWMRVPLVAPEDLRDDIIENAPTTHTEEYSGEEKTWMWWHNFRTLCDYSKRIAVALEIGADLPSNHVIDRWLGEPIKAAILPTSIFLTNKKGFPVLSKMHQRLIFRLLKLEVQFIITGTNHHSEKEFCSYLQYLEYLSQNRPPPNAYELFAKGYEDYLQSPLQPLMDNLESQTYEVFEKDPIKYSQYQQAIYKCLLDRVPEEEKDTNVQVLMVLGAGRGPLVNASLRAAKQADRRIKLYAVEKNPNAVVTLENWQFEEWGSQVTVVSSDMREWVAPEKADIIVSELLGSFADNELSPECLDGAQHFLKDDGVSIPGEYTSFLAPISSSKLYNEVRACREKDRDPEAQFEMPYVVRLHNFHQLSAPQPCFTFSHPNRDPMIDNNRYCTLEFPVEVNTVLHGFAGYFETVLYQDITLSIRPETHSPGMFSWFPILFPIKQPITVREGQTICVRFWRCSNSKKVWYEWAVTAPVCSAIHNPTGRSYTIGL
Protein arginine N-methyltransferase 1, sequence (Q99873 whole entry): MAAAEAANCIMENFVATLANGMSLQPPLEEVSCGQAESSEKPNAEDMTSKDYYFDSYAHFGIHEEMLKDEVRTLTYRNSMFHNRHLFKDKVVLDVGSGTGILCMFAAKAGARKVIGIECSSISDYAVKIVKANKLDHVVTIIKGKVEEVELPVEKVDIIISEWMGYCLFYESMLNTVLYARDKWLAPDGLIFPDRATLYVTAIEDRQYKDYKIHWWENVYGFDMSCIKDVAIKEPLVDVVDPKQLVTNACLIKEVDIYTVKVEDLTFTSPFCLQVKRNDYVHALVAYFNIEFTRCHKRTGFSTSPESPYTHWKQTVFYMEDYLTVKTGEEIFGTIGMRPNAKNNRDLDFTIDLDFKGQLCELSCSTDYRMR

Which IC50 (PANC-1 [1]) does the source give for `COc1cc2c(NC3CCN(C(C)C)CC3)nc(N3CCC(F)(F)CC3)nc2cc1OCCCN1CCCC1` here?
Its IC50 is 5.74 µM.

And the inhibition in vivo at 4 mg/kg (PANC-1 [2])?
The inhibition in vivo at 4 mg/kg was 7.34%.

And the IC50 (MDA-MB-231)?
Its IC50 is 3.31 µM.

Which IC50 [3] does the source give for `CNc1nc2cc(OCCCN3CCCC3)c(OC)cc2n1C(C)C` here?
The IC50 was under 0.1 µM.

For `COc1cc2nc(C#N)nc(NC3CCN(Cc4ccccc4)CC3)c2cc1OC`, which IC50 [3] is on record?
Its IC50 is over 10 µM.

And the IC50 [4]?
Its IC50 is 2.65 µM.

Which IC50 [4] does the source give for `COc1cc(F)c(-c2cc(Cn3cnc4c(N)ncnc43)c(N3CCC[C@](N)([C@H](O)CF)C3)cn2)cc1F` here?
The IC50 was under 0.1 µM.

For `COc1cc2c(NC3CCN(C(C)C)CC3)nc(C#N)nc2cc1OCCCN1CCCC1`, which IC50 [5] is on record?
The IC50 was over 10 µM.

What about the AUC [6] of the same compound?
Its AUC is 2960 ng·h/mL.

And the IC50 [7]?
The IC50 was over 10 µM.

What about the IC50 [8] of the same compound?
The IC50 was over 10 µM.

And the Cmax [9]?
The Cmax was 732 ng/mL.

And the IC50 [10]?
Its IC50 is 6.44 µM.

What about the IC50 [11] of the same compound?
The IC50 was over 10 µM.

And the Activity [12]?
The Activity was “Non-Toxic”.

What about the IC50 [13] of the same compound?
Its IC50 is over 10 µM.

What about the IC50 [14] of the same compound?
The IC50 was over 10 µM.

What about the MRT last [15] of the same compound?
The MRT last was 20.3 h.

What about the Activity [16] of the same compound?
The Activity was “Non-Toxic”.

What about the AUClast [17] of the same compound?
Its AUClast is 1987 ng·h/mL.

What about the IC50 [18] of the same compound?
Its IC50 is 0.41 µM.

What about the half-life [19] of the same compound?
The half-life was 16 h.

With `C=CC(=O)N(C)c1nc(NC2CCN(C(C)C)CC2)c2cc(OC)c(OCCCN3CCCC3)cc2n1` as the compound, how does the IC50 [3] read?
Its IC50 is 0.0085 µM.
